The target in this assay is KDM3B (Homo sapiens, UniProt Q7LBC6). Briefly: competitive inhibition of purified recombinant KDM3B. It counts as biochemical.

The structures appear in SMILES notation.

Chain of KDM3B (Q7LBC6 whole entry): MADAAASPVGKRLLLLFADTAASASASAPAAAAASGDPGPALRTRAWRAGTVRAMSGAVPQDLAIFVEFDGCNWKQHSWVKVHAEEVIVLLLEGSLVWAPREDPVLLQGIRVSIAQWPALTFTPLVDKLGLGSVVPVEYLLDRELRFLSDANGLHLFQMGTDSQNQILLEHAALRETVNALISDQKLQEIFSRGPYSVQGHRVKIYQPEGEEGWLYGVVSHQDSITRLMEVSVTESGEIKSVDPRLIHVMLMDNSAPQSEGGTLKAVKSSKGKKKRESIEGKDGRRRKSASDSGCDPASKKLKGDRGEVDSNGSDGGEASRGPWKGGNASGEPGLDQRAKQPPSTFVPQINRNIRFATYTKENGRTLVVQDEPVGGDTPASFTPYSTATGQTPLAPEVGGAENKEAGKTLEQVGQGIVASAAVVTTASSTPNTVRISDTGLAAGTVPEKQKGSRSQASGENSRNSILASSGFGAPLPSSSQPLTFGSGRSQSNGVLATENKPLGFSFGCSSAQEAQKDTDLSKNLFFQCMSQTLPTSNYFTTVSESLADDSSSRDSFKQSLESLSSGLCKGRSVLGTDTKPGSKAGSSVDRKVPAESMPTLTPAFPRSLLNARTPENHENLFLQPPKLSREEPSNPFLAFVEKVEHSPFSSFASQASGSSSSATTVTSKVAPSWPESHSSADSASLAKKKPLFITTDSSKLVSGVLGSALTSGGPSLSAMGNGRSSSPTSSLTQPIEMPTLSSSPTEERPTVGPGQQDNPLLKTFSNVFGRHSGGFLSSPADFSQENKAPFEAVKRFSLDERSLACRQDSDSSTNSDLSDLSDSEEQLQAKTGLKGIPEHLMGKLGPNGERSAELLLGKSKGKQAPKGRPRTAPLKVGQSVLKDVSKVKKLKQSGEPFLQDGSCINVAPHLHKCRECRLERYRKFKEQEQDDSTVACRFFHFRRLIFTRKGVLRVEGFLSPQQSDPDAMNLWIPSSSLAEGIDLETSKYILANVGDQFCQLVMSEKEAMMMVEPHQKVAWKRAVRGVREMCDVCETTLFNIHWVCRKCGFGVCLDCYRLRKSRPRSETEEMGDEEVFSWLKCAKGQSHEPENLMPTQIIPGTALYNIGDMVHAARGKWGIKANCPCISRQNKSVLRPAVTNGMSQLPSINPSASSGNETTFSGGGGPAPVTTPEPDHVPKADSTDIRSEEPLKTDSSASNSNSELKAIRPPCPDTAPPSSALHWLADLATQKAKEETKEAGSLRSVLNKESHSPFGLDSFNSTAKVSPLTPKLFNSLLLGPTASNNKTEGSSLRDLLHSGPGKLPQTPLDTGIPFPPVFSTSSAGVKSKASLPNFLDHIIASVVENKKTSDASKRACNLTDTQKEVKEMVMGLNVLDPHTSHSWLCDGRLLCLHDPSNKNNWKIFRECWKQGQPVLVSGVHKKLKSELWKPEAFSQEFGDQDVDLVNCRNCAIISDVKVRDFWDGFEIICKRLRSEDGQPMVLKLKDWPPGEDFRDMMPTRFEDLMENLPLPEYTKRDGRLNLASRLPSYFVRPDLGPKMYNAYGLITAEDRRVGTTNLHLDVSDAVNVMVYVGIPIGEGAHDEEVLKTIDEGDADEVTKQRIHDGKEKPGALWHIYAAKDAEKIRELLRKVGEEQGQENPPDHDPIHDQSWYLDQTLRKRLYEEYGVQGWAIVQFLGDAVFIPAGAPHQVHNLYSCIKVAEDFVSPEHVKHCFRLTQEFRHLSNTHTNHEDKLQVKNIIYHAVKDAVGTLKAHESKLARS

On to `O=C(O)CCC(O)C(=O)O` (stereo not shown) [R-2HG], for which the IC50 is about 2460 µM.

Broadly, the IC50 is the midpoint of a concentration-inhibition curve.

(Values after PMC11407783 (Nature cell biology, 2023).)
